Values quoted from earlier work, collected in patent US10543230B2, “Redox signaling gel formulation” (RDG Holdings, Inc., priority 2013, dated 2020).

Settings: pH around 7.0, room temperature

SMILES	half-life
[O]O [superoxide free radicals (O2*-), superoxide]	10's of milliseconds
O=[O+][O-] [dissolved ozone (O3), ozone]	about 20 min
